From ChEMBL document CHEMBL1799910, “Optimization of 1,2,3,4-tetrahydroacridin-9(10H)-ones as antimalarials utilizing structure-activity and structure-property relationships” (J Med Chem, 2011)
In brackets after ≈: the same amount, converted by molar mass.

Assays:
[1] = Partition coefficient, log D of the compound at pH 7.4 by HPLC analysis; details: octanol/water
[2] = Cytotoxicity index, ratio of EC50 for mouse J774 cells to EC50 for chloroquine, mefloquine, pyrimethamine and atovaquone-resistant Plasmodium falciparum TM90-C2B; assay type: cell-based; details: read-out: Ratio EC50
Plasmodium falciparum [3] = experiment: Antimalarial activity against chloroquine, mefloquine, pyrimethamine and atovaquone-resistant Plasmodium falciparum TM90-C2B infected in human A positive erythrocytes after 72 hrs by SYBR Green I assay; assay type: functional, organism-based
Plasmodium falciparum [4] = experiment: Antimalarial activity against chloroquine and pyrimethamine-resistant Plasmodium falciparum W2 infected in human A positive erythrocytes after 72 hrs by SYBR Green I assay; assay type: functional, organism-based; details: W2, 72 h
[5] = Aqueous solubility of compound at pH 7.4 by HPLC analysis; details: buffer
[6] = Permeability of the compound by PAMPA method at pH 7.4; assay type: ADME; details: read-out: permeability
J774 = experiment: Cytotoxicity against mouse J774 cells after 72 hrs by Cell titer 96 aqueous one solution cell proliferation assay; assay type: cell-based; details: J774, 72 h
Plasmodium falciparum [7] = experiment: Resistance index, ratio of EC50 for chloroquine, mefloquine, pyrimethamine and atovaquone-resistant Plasmodium falciparum TM90-C2B to EC50 for chloroquine and pyrimethamine-resistant Plasmodium falciparum W2; assay type: functional

Structure (SMILES) | logD [1] | selectivity ratio [2] | EC50 (Plasmodium falciparum [3]) [µM] | EC50 (Plasmodium falciparum [4]) [µM] | solubility [5] [µM] | Papp [6] [nm/s] | EC50 (J774) [µM] | Ratio EC50 (Plasmodium falciparum [7])
Oc1c2c(nc3ccc(Br)cc13)CCCC2 | 2.1 | ≥ 100 | 0.0647 | 0.197 | 2 (≈ 0.556 µg/mL) | 630 | > 2 | 0.32
O=c1c2c([nH]c3cc([N+](=O)[O-])ccc13)CCCC2 | 1.5 | ≥ 100 | 0.959 | 1.05 | 3 (≈ 0.733 µg/mL) | 630 | > 2 | 0.91
O=c1c2c([nH]c3ccc([N+](=O)[O-])cc13)CCCC2 | 1.5 | ≥ 100 | 0.379 | 3.16 | 8 (≈ 1.95 µg/mL) | 69 | > 5 | 0.12
O=c1c2c([nH]c3c(F)cccc13)CCCC2 | 1.5 | ≥ 100 | 2.91 | 0.536 | 109 (≈ 23.7 µg/mL) | 170 | > 40 | 5.43
O=c1c2c([nH]c3cc(F)ccc13)CCCC2 | 1.7 | ≥ 100 | 0.119 | 0.0677 | 46 (≈ 9.99 µg/mL) | 210 | > 20 | 1.76
O=c1c2c([nH]c3ccc(I)cc13)CCCC2 | 2.3 | ≥ 100 | 0.167 | 0.378 | 4 (≈ 1.3 µg/mL) | 960 | > 20 | 0.44
O=c1c2c([nH]c3cc(Br)ccc13)CCCC2 | 2.8 | ≥ 100 | 0.115 | 0.0777 | 14 (≈ 3.89 µg/mL) | 700 | > 10 | 1.48
CC(C)(C)c1ccc2[nH]c3c(c(=O)c2c1)CCCC3 | 2.8 | ≥ 100 | 0.325 | 0.0787 | 5 (≈ 1.28 µg/mL) | 1650 | > 5 | 4.13
CC(C)c1ccc2[nH]c3c(c(=O)c2c1)CCCC3 | 2.2 | ≥ 100 | 0.732 | 0.879 | 30 (≈ 7.24 µg/mL) | 1000 | > 40 | 0.83
CCOc1ccc2[nH]c3c(c(=O)c2c1)CCCC3 | 1.9 | ≥ 100 | 0.226 | 0.265 | 5 (≈ 1.22 µg/mL) | 520 | > 5 | 0.85
CCOC(=O)c1ccc2[nH]c3c(c(=O)c2c1)CCCC3 | 2.1 | ≥ 100 | 0.0583 | 0.153 | 8 (≈ 2.17 µg/mL) | 630 | > 5 | 0.38
Cc1ccc(C)c2c(=O)c3c([nH]c12)CCCC3 | 2.6 | ≥ 100 | 2.39 | 3.07 | 122 (≈ 27.7 µg/mL) | 2630 | > 20 | 0.78
Cc1cc(C)c2[nH]c3c(c(=O)c2c1)CCCC3 | 2.2 | ≥ 100 | 0.768 | 1.07 | 108 (≈ 24.5 µg/mL) | 580 | > 40 | 0.72
Cc1ccc2c(=O)c3c([nH]c2c1C)CCCC3 | 2.2 | ≥ 100 | 2.28 | 3.92 | 8 (≈ 1.82 µg/mL) | 420 | > 5 | 0.58
COc1cc(OC)c2[nH]c3c(c(=O)c2c1)CCCC3 | 1.9 | ≥ 100 | 7.98 | > 9.64 | 152 (≈ 39.4 µg/mL) | 510 | > 20 | <0.83
COc1cc(OC)c2c(=O)c3c([nH]c2c1)CCCC3 | 1.4 | ≥ 100 | 2.59 | > 7.29 | 188 (≈ 48.7 µg/mL) | 130 | > 40 | <0.36
COc1ccc2c(=O)c3c([nH]c2c1OC)CCCC3 | 1.8 | ≥ 100 | 3.46 | 6.34 | 175 (≈ 45.4 µg/mL) | 190 | > 20 | 0.55
COc1cc2[nH]c3c(c(=O)c2cc1OC)CCCC3 | 1.3 | ≥ 100 | 3.39 | 8.97 | 88 (≈ 22.8 µg/mL) | 10 | > 20 | 0.38
O=c1c2c([nH]c3cc(Cl)cc(Cl)c13)CCCC2 | 2.5 | ≥ 100 | 0.0962 | 0.0878 | 8 (≈ 2.15 µg/mL) | 1340 | > 5 | 1.1
O=c1c2c([nH]c3c(Cl)c(Cl)ccc13)CCCC2 | 2.9 | ≥ 100 | > 9.33 | 6.33 | 41 (≈ 11 µg/mL) | 3480 | > 20 | >1.47
O=c1c2c([nH]c3cc(Cl)c(Cl)cc13)CCCC2 | 2.6 | ≥ 100 | 0.341 | 0.321 | 1 (≈ 0.268 µg/mL) | 1800 | > 1 | 1.06
O=c1c2c([nH]c3c(F)ccc(F)c13)CCCC2 | 1.3 | ≥ 100 | 1.32 | 0.804 | 159 (≈ 37.4 µg/mL) | 120 | > 40 | 1.64
O=c1c2c([nH]c3c(F)cc(F)cc13)CCCC2 | 1.7 | ≥ 100 | 0.405 | 2.69 | 66 (≈ 15.5 µg/mL) | 290 | > 40 | 0.15
O=c1c2c([nH]c3c(F)c(F)ccc13)CCCC2 | 1.9 | ≥ 100 | 0.378 | 1.05 | 93 (≈ 21.9 µg/mL) | 380 | > 40 | 0.36
O=c1c2c([nH]c3cc(F)c(F)cc13)CCCC2 | 1.9 | ≥ 100 | 0.118 | 0.129 | 18 (≈ 4.23 µg/mL) | 280 | > 10 | 0.91
COc1cc2c(=O)c3c([nH]c2cc1Cl)CCCC3 | 1.3 | ≥ 100 | 0.0115 | 0.0352 | 33 (≈ 8.7 µg/mL) | 240 | > 20 | 0.33
